Measured values taken from paper PMC12006171, “Marsupial cathelicidins: characterization, antimicrobial activity and evolution in this unique mammalian lineage” (Frontiers in Immunology, 2025).
Values after ≈ are worked out from the molar mass of the structure shown. Read-outs that look alike come from different tables or passages of the source. Where a SMILES comes first, the peptide text is derived from it.

Columns and labels:
[1] = test system: Tasmanian devil facial tumor disease; details: cited from earlier work
Text: Many marsupial and monotreme cathelicidins were closely related to the classic cathelicidins found in eutherians. These cathelicidins sit within clade II in the phylogenetic tree, sister to eutherians but were not orthologous ( Figure 3 ). Classic marsupial cathelicidins were encoded in cluster A in the genome of all marsupials and monotremes studied, syntenic to the single cathelicidin gene/cluster in eutherians ( Figure 2 ). Many of these were antimicrobial and bactericidal, with MICs equal to or less than eutherian peptides such as cow BMAP-27 and -28 ([87]) and human LL-37, including again ...

[2] = test system: three fungi (Candida krusei, Candida parapsilosis, Candida albicans); set-up: method as in 4 sources, ref Peel et al 2016 ||| ref Peel et al 2021 ||| ref Wang et al 2011 ||| ref Peel et al 2017; details: mature peptide; Y/N summary from earlier study; ref Peel et al 2016; cited from earlier work
[3] = test system: six bacteria (S. aureus, E. coli, P. aeruginosa; ATCC and clinical isolate); set-up: method as in 4 sources, ref Peel et al 2016 ||| ref Peel et al 2021 ||| ref Wang et al 2011 ||| ref Peel et al 2017; details: mature peptide; Y/N summary from earlier study; ref Peel et al 2016; cited from earlier work
[4] = test system: E. coli ATCC 25922; assay: Killing kinetics (time kill assay); format: cell-based, Escherichia coli; details: MHB, 35°C, sampled 1-24 hours, n = 2
Description: The killing kinetics assay was conducted using mid-logarithmic phase cultures of E. coli ATCC 25922 and S. aureus ATCC 29213 in MHB. Cultures were adjusted to a 0.5 McFarland standard, diluted in MHB, and then 100µL was added to each culture tube containing 10mL pre-warmed MHB to give a final inoculum concentration of 5 x 10^5 CFU/mL. A sterility control of 100uL MHB, growth control (no cathelicidin), and vehicle control (DMSO) were also included. Furthermore, 10uL was immediately removed from the growth control tube, diluted 1/1000 in saline and 100µL plated onto MHA in duplicate to confirm inoculum density. To establish colony counts from 0 hours of cathelicidin treatment, 200µL was removed from each culture tube and serially diluted ten-fold in saline from 10^0 to […] in a total volume of 200µL. Then, 10µL of each dilution was spotted onto MHA in duplicate, which were incubated at 35°C for 24 hours.
All culture tubes were then incubated at 35°C static. At 1, 2, 4, 6, 8, 10, 12, and 24 hours post-cathelicidin treatment, 200µL was removed from each culture tube for dilution and plated on MHA as described above. […] Counts of duplicates were averaged, and the log10 CFU/mL graphed against time. This was used as input for one-way ANOVA (p < 0.05) followed by Dunnett’s post hoc test.

[5] = test system: Streptococcus agalactiae Clinical isolate - animal; assay: microbe, parasite or virus in culture; format: cell-based; details: clinical isolate - animal; read-out: MIC S. agalactiae
How it was run: (§1)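 MIC defined as lowest peptide level preventing visible growth after 20–24 h at 35°C. Candida tested in RPMI-1640 MOPS; bacteria in Mueller Hinton broth, optionally with 10% lysed horse blood and/or divalent cations. Final peptide range 64-0.125 μg/mL, starting inoculum 5 x 10^5 CFU/mL, per CLSI M07-A/M26A.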

[6] = test system: Streptococcus pneumoniae ATCC 49619; assay: microbe, parasite or virus in culture; format: cell-based; details: ATCC 49619; read-out: MIC S. pneumoniae ATCC
How it was run: as §1

[7] = test system: Candida krusei ATCC 6258; assay: microbe, parasite or virus in culture; format: cell-based; details: ATCC 6258; read-out: MIC C. krusei ATCC
How it was run: as §1

[8] = test system: Candida albicans Clinical isolate - human; assay: microbe, parasite or virus in culture; format: cell-based; details: Clinical isolate - human; read-out: MIC C. albicans
How it was run: as §1

[9] = test system: Candida parapsilosis ATCC 22019; assay: microbe, parasite or virus in culture; format: cell-based; details: ATCC 22019
How it was run: as §1

[10] = test system: Streptococcus agalactiae ATCC 12386; assay: microbe, parasite or virus in culture; format: cell-based; details: ATCC 12386; read-out: MIC S. agalactiae ATCC
How it was run: as §1

[11] = test system: Escherichia coli clinical isolate - animal; assay: microbe, parasite or virus in culture; format: cell-based
How it was run: (§2)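 Each isolate was exposed to twofold peptide dilutions (final 64-0.125μg/mL) in Mueller Hinton broth, optionally supplemented with calcium and magnesium or 10% lysed horse blood. The MIC was taken as the lowest concentration lacking visible growth after 20–24 hours at 35°C.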

[12] = test system: Staphylococcus aureus ATCC 29213; assay: microbe, parasite or virus in culture; format: cell-based; details: ATCC 29213; read-out: MIC S. aureus ATCC
How it was run: as §2

[13] = test system: Staphylococcus aureus clinical isolate - animal; assay: microbe, parasite or virus in culture; format: cell-based; details: clinical isolate - animal; read-out: MIC S. aureus
How it was run: as §2

[14] = test system: Escherichia coli ATCC 25922; assay: microbe, parasite or virus in culture; format: cell-based
How it was run: as §2

[15] = test system: Pseudomonas aeruginosa clinical isolate - animal; assay: microbe, parasite or virus in culture; format: cell-based
How it was run: as §2

[16] = test system: Pseudomonas aeruginosa ATCC 27853; assay: microbe, parasite or virus in culture; format: cell-based
How it was run: as §2

[17] = test system: six bacteria (S. aureus, E. coli, P. aeruginosa; ATCC and clinical isolate); format: cell-based
How it was run: as §2

[18] = clinical isolate, MHB without cations, 5 x 10^5 CFU/mL, 35°C 20–24 hours, duplicate
[19] = clinical isolate, superscript value, cation-adjusted Mueller Hinton broth
[20] = clinical isolate, value in brackets, 99.9% reduction in CFU/mL
[21] = MHB without cations, 5 x 10^5 CFU/mL, 35°C 20–24 hours, duplicate
[22] = superscript value, cation-adjusted Mueller Hinton broth
[23] = value in brackets, 99.9% reduction in CFU/mL

In the case of “KIKRIGLGGFIGRILDRIRRLG [SahaCath5, Tasmanian devil cathelicidin, reference compound]”, the “Toxicity to Tasmanian devil facial tumor disease” value [1] is listed as “toxic to Tasmanian devil facial tumor disease”, the “Antifungal (MIC <64ug/mL)” value [2] is listed as “Y (Peel et al 2016) (Antifungal (MIC <64ug/mL))” and the “Antibacterial (MIC <64ug/mL)” value [3] is listed as “Y (Peel et al 2016) (Antibacterial (MIC <64ug/mL))”.
For “KRIRFFERIRDRLRDLGNRIKNRIRDFFS [SahaCath6, Tasmanian devil cathelicidin, reference compound]”, the “Toxicity to Tasmanian devil facial tumor disease” value [1] is listed as “toxic to Tasmanian devil facial tumor disease”, the “Antifungal (MIC <64ug/mL)” value [2] is listed as “Y (Peel et al 2016) (Antifungal (MIC <64ug/mL))” and the “Antibacterial (MIC <64ug/mL)” value [3] is listed as “Y (Peel et al 2016) (Antibacterial (MIC <64ug/mL))”.
For `CC[C@H](C)[C@H](NC(=O)[C@H](CCCCN)NC(=O)[C@@H](NC(=O)[C@H](CC(N)=O)NC(=O)[C@H](CCCCN)NC(=O)[C@H](CC(C)C)NC(=O)[C@H](CCCNC(=N)N)NC(=O)[C@H](CCCCN)NC(=O)[C@H](CCCCN)NC(=O)[C@@H](NC(=O)[C@H](CO)NC(=O)[C@H](CCCCN)NC(=O)CNC(=O)[C@H](CC(C)C)NC(=O)[C@H](CCCCN)NC(=O)[C@H](CCCCN)NC(=O)[C@H](CC(C)C)NC(=O)[C@H](CCCCN)NC(=O)[C@H](CCCCN)NC(=O)[C@H](CCCNC(=N)N)NC(=O)[C@H](CC(C)C)NC(=O)CNC(=O)[C@H](CCCNC(=N)N)NC(=O)[C@@H](N)CO)[C@@H](C)CC)[C@@H](C)CC)C(=O)NCC(=O)N[C@@H](Cc1ccc(O)cc1)C(=O)N[C@@H](CO)C(=O)N[C@H](C(=O)N1CCC[C@H]1C(=O)N[C@@H](Cc1ccccc1)C(=O)N1CCC[C@H]1C(=O)NCC(=O)O)[C@@H](C)CC` [PspeCath1] (H-SRGLRKKLKKLGKSIKKRLKNIKIGYSIPFPG-OH; N-terminus and C-terminus assumed), the “Number of hours to cause a significant reduction in log CFU/mL of E. coli ATCC (p < 0.05)” value ([4]; 0.5x MIC) was 2 hours, the “Number of hours to cause a significant reduction in log CFU/mL of E. coli ATCC (p < 0.05)” value ([4]; 2x MIC) was 1 hours and the “Number of hours to cause a significant reduction in log CFU/mL of E. coli ATCC (p < 0.05)” value ([4]; MIC) was 2 hours. For the same compound, the MIC [5] was greater than 17.5 µM, the MIC [6] was greater than 17.5 µM and the MIC [7] was greater than 17.5 µM. The MIC [8] was greater than 17.5 µM, the “MFC C. parapsilosis ATCC” value [9] was greater than 17.5 µM and the MIC ([9]; read-out: MIC C. parapsilosis ATCC) was 8.75 µM (≈ 32 µg/mL). For the same compound, the MIC [10] was greater than 17.5 µM, the “MBC E. coli” value ([11]; clinical isolate - animal) was 1 µM and the MIC ([11]; clinical isolate - animal) was 1 µM (≈ 3.65 µg/mL). For the same compound, the “MIC in the presence of cations E. coli” value ([11]; clinical isolate - animal) was 0.5 µM, the “MIC E. coli” value [11, 18] was 4 mg/L (≈ 1.09 µM) and the “MIC in the presence of cations E. coli” value [11, 19] was 2 mg/L. For the same compound, the “MBC E. coli” value [11, 20] was 4 mg/L, the MIC [12] was greater than 17.5 µM and the MIC [13] was greater than 17.5 µM. The “MBC E. coli ATCC” value ([14]; ATCC 25922) was 2.1 µM, the MIC ([14]; ATCC 25922, read-out: MIC E. coli ATCC) was 1 µM (≈ 3.65 µg/mL) and the MIC ([14]; ATCC 25922, read-out: MIC in the presence of cations E. coli ATCC) was 1 µM. For the same compound, the “MIC E. coli ATCC” value [14, 21] was 4 mg/L (≈ 1.09 µM), the “MIC in the presence of cations E. coli ATCC” value [14, 22] was 4 mg/L and the “MBC E. coli ATCC” value [14, 23] was 8 mg/L. For the same compound, the “MBC P. aeruginosa” value ([15]; clinical isolate - animal) was 4.3 µM, the MIC ([15]; clinical isolate - animal, read-out: MIC P. aeruginosa) was 2.1 µM (≈ 7.67 µg/mL) and the MIC ([15]; clinical isolate - animal, read-out: MIC in the presence of cations P. aeruginosa) was 2.1 µM. For the same compound, the “MIC P. aeruginosa” value [15, 18] was 8 mg/L (≈ 2.19 µM), the “MIC in the presence of cations P. aeruginosa” value [15, 19] was 8 mg/L and the “MBC P. aeruginosa” value [15, 20] was 16 mg/L. The “MBC P. aeruginosa ATCC” value ([16]; ATCC 27853) was 2.1 (2.1)^2.1 µM, the “MIC P. aeruginosa ATCC” value ([16]; ATCC 27853) was 2.1 (2.1)^2.1 µM and the “MIC in the presence of cations P. aeruginosa ATCC” value ([16]; ATCC 27853) was 2.1 (2.1)^2.1 µM. For the same compound, the “MIC P. aeruginosa ATCC” value [16, 21] was 8 (8)^8 µg/mL, the “MIC in the presence of cations P. aeruginosa ATCC” value [16, 22] was 8 (8)^8 µg/mL and the “MBC P. aeruginosa ATCC” value [16, 23] was 8 (8)^8 µg/mL. For the same compound, the “MIC against at least one strain” value [17] was 4 mg/L (≈ 1.09 µM).
